Read-outs that look alike come from different tables or passages of the source.
Target: T1, human α7 nicotinic acetylcholine receptor (HEK cell line stably expressing human RIC-3 and human α7) (Homo sapiens, UniProt P36544)
T1 construct: host or cells: HEK cell line (PrecisION hnAChR α7/RIC-3)
Experiment: Automated patch-clamp electrophysiology functional assay (Assay A), IonFlux HT, whole-cell population patch
Format: cell-based

[1] = HEK cells expressing human α7/RIC-3, test compound with or without 40 μM acetylcholine, holding potential −60 mV, room temperature, read-out: α7 nAChR Potency
[2] = automated patch-clamp electrophysiology functional assay (Assay A), read-out: α7 nAChR EC50

T1 sequence (P36544 23-502): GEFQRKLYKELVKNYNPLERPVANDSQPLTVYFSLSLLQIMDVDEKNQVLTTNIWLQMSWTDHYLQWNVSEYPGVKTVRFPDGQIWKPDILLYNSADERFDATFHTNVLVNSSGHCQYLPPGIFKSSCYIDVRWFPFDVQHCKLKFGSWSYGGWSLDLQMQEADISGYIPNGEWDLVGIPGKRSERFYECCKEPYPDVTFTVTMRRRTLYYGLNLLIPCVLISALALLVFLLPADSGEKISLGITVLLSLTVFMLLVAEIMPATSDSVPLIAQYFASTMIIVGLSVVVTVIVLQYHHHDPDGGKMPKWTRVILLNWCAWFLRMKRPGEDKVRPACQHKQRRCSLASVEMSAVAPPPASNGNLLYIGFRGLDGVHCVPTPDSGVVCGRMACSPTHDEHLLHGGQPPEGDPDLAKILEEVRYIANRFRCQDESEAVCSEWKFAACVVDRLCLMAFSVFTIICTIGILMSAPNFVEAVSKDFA

| EC50 [1] [nM] | EC50 [2] [nM] | Structure (SMILES) |
| --- | --- | --- |
| 500 to 5000 | 4500 | NS(=O)(=O)N1CCC2(CC1)[C@@H](c1nc(C3CCCCC3)no1)C2(F)F [Example H3] |
| 500 to 5000 | 1200 | NS(=O)(=O)N1CCC2(CC1)[C@@H](c1nc(-c3cccc(F)c3)no1)C2(F)F [Example H4] |
| 500 to 5000 | – | Cc1ccccc1-c1noc([C@H]2C(F)(F)C23CCN(S(N)(=O)=O)CC3)n1 [Example H5] |
| 500 to 5000 | 3400 | Cc1ccccc1-c1nnc([C@H]2C(F)(F)C23CCN(S(N)(=O)=O)CC3)s1 [Example H6] |
| 500 to 5000 | 1400 | NS(=O)(=O)N1CCC2(C(F)C1)C(c1nc(-c3ccc(F)cc3C(F)(F)F)no1)C2(F)F (centres unmarked) [Example I15] |
| 500 to 5000 | 2100 | NS(=O)(=O)N1CCC2(C(F)C1)C(c1nc(-c3ccc(F)cc3C(F)(F)F)no1)C2(F)F (centres unmarked) [Example I16] |
| 500 to 5000 | – | NS(=O)(=O)N1CCC2(C(F)C1)C(c1nc(-c3ccc(F)cc3C(F)(F)F)no1)C2(F)F (centres unmarked) [Example I17] |
| 100 to 500 | 320 | NS(=O)(=O)N1CCC2(C(F)C1)C(c1nc(-c3ccc(F)cc3C(F)(F)F)no1)C2(F)F (centres unmarked) [Example I18] |

— patent US11332463B2, “Spiropiperidine allosteric modulators of nicotinic acetylcholine receptors” (Merck Sharp & Dohme Corp., priority 2018, dated 2022)
